Data on two substances can be found in US5464819A, “Physiologically active peptide having immunoregulatory activities” (priority 1990, dated 1995).

The subject of one assay is Toxoplasma. Kind of assay: Toxo-GIF activity of synthetic peptides used singly and in combination (host cells not stated). The following applies: total mg/ml: Obio-1 0.49, Obio-2 0.50, Obio-3 0.45, Obio-1+Obio-2 0.49, Obio-1+Obio-3 0.46, Obio-2+Obio-3 0.47. The assay is classed as cell-based, Toxoplasma gondii. As to the method:
(§1) In the present invention, the activity to inhibit multiplication of Toxoplasma is evaluated by two characteristics, i.e. "percentage of cells containing Toxoplasma" and "Toxoplasma growth inhibitory factor activity (hereinafter referred to as "Toxo-GIF activity")". These characteristics are measured according to the methods described in Nagasawa, H., et.al., Jpn. J. Vet. Sci., vol. 43, pages 307-319, 1981 and Sakurai, H., et.al., Jpn. J. Trop. Med. Hyg., vol. 10, pages 183-195, 1982.
(§2) A 10%-HICS-Tc199 culture medium containing a peptide sample is applied to the cover glass in an amount of 1 ml per 1×10^6 cells for both of the mouse macrophages and the canine monocytes, followed by cultivation for 48 hours, and then stained with May-Grunwald-Giemsa to thereby count the number of Toxoplasma organisms in the cells. Within a certain visual field on the cover glass, 100 cells are checked to count the number of cells which contain no Toxoplasma, the number of cells which contain one to five Toxoplasm organisms and the number of cells which contain 6 or more Toxoplasma organisms, and the count results are expressed by percentage. Similar checking and counting are performed within four other visual fields on the cover glass. From the data obtained on all of the five visual fields, an average value and a standard deviation are calculated to determine the percentage of cells containing Toxoplasma.
(§3) The Toxo-GIF activity, which is another activity useful for evaluating the activity to inhibit multiplication of Toxoplasma, is defined as a proportion of decrease of Toxoplasma (Tp)-containing cells (in percentage) attributed to the addition of a peptide sample, expressed by percentage, and calculated according to the following formula: Toxo-GIF Activity (%)= [formula]

The subject of assay [1] is mononuclear cells in spleen. Kind of assay: Number of mononuclear cells in spleen and histopathology of MC tumor-bearing mouse. The assay is classed as in vivo. The following applies: for Bleeding colonies at the tumor tissue portions (histopathological findings): MC tumor-bearing mice, large bleeding colonies in uninjected mice; for Spleen mononuclear cell count in tumor-bearing mice relative to normal mice: spleen mononuclear cells, saline 0.10; for Spleen mononuclear cell count in tumor-bearing mice relative to normal mice / Number of mononuclear cells per mouse: MC tumor-bearing mouse; for Number of mononuclear cells per mouse: spleen, 30 μg once a week, normal mouse 13.0 × 10^7, saline 1.3 × 10^7. The procedure:
(§4) Methylcholanthrene induced tumor cells excised from an MC induced tumor lump of a BALB/c mouse having, injected thereto, 0.5 mg of 20-Methylcholanthrene (manufactured and sold by Wako Pure Chemical Industries Ltd.), are suspended in RPMI-1640 culture medium, thereby obtaining a cell suspension of 2×10^7 cells/ml. 0.025 ml (5×10^5 MC tumor cells/mouse) of the cell suspension is intramuscularly injected under the skin on the back of a 6-week-old male mouse to inoculate the mouse with MC-tumor cells, thereby obtaining a tumor-bearing mouse.
(§5) Each of Obio-2 and Obio-3 is intramuscularly injected in an amount of 30 μg/mouse under the skin on the back of the mouse every week after the injection of the above MC tumor cell suspension to evaluate the inhibitory effect thereof on the multiplication of the tumor. Five tumor-bearing mice are employed for each test, and an average is taken.
On the other hand, the number of mononuclear cells in the spleen of tumor-bearing mice injected with Obio-2 and Obio-3 experience only a slight decrease, and retains as large a number as 65 to 70% of that of normal mice. In the histopathological findings of these spleens, no significant change is observed in the spleen follicles of both the tumor-bearing mouse groups injected with Obio-2 and Obio-3 and the tumor-bearing mouse group injected with none of them. However, in the mouse groups injected with Obio-2 and Obio-3, small mononuclear cells (small lymphocytes) and large monocytes in the spleen red marrow conspicuously gather in the mallow, especially around the vessels, whereas the control mouse group not injected with the peptide has only small lymphocytes in the marrow.

For assay [2], the system named is Toxoplasma strain RH. Kind of assay: Activity to inhibit multiplication of Toxoplasma (percentage of cells containing Toxoplasma, Toxo-GIF activity, cytotoxicity) in mouse peritoneal macrophages. The assay is classed as cell-based, Toxoplasma gondii. As to the method: as §1
An adult BALB/c female mouse is intraperitoneally injected with 1 ml of a sterilized saline containing 0.2% of glycogen, and, 5 days later, the peritoneal cavity of the mouse is washed with cold Hank's balanced salt solution (hereinafter referred to as "HBSS"), thereby taking up peritoneal exudate cells. These cells are washed by centrifugation at 250×G for 5 min twice, and suspended in Tc199 culture medium containing 10% of heat-inactivated calf serum (hereinafter referred to as "10%-HICS-Tc199 culture medium", see Igaku No Ayumi (Progress in Medicine), 62, No. 6, published on Aug. 5, 1967) in a concentration of 1×10^6 cells/mi. This cell suspension is portionwise poured, 1 ml each, into culture wells (Multidish-tray, FB-16-24-TC, manufactured and sold by Limblo Chemical Co., U.S.A.), which are covered by a circular cover glass having a diameter of 15 mm, and cultured in a 5% CO2 -incubator. In order to remove contaminating erythrocytes and lymphocytes, each of the culture wells is gently rinsed with HBSS three times at intervals of 2 hours, and then cultivated overnight in the CO2 -incubator to thereby form a mouse macrophage monolayer on the cover glass.
Each of the above-obtained monolayers is again rinsed with 10%-HICS-Tc199 culture medium, and inoculated with 1×10^5 tachyzoites of Toxoplasma strain RH per 1×10^6 mouse macrophages or canine monocytes so that the macrophages are infected thereby. Free Toxoplasma organisms having not penetrated into the cells are removed by washing with HBSS one hour after the inoculation.
as §2
As a peptide sample, use is made of one obtained by dissolving a powdery peptide in 3 ml of 10%-HICS-Tc199 culture medium and then filtering and sterilizing the resultant solution through a membrane filter having a pore size of 0.46 μm. […]
The thus obtained crude Obioactin is fractionated by DEAE-5PW column (manufactured and sold by Tosoh Co., Japan) having an inside diameter of 21.5 mm and a length of 15 cm by NaCl concentration gradient ion exchange chromatography in which a concentration gradient of NaCl from 0M to 1M is made in 0.02M ammonium acetate as a basic solution. Each of the fractions is lyophilized, desalted by gel filtration through Sephadex G-15 (trade name of a gel manufactured and sold by Pharmacia Fine Chemicals Co., Sweden) and lyophilized again.

The test system of assay [3] is Toxoplasma strain RH. Description: Activity to inhibit multiplication of Toxoplasma in canine monocytes. Format: cell-based, Toxoplasma gondii. The following applies: Obio-2 0.05 mg/ml, canine monocyte cell. The procedure:
as §1
On the other hand, in the preparation of canine monocytes, 5 ml of blood is collected from cervical vein as a peripheral blood, and 0.05% of heparin is added. This blood is subjected to fractionation according to the Conray 400-Ficoll method (see Tsuji, H., Men-eki Jikken Sosaho (Procedure for Immunological Tests), 4th ed., Immunocells I-4, pages 443-446, published by Maeda Printing Co., Ltd., in 1979) to thereby obtain a mononuclear cell fraction. The obtained mononuclear cell fraction is subjected to centrifugation (800×G, 5 min., 4° C.) with HBSS and then with 10%-HICS-Tc199 culture medium, and suspended in 10%-HICS-Tc199 culture medium in a concentration of about 1×10^6 cells/mi. The resultant cell suspension is portionwise poured, 1 ml each, into the above-mentioned culture wells, which are covered by a circular cover glass having a diameter of 15 mm, and cultured in a 5% CO2 -incubator. The culturing is effected for 12 hours, and each of the culture wells is gently rinsed with HBSS three times, followed by cultivation overnight in the CO2 -incubator, to thereby form a canine monocyte monolayer on the cover glass.
Each of the above-obtained monolayers is again rinsed with 10%-HICS-Tc199 culture medium, and inoculated with 1×10^5 tachyzoites of Toxoplasma strain RH per 1×10^6 mouse macrophages or canine monocytes so that the macrophages are infected thereby. […]
A 10%-HICS-Tc199 culture medium containing a peptide sample is applied to the cover glass in an amount of 1 ml per 1×10^6 cells for both of the mouse macrophages and the canine monocytes, followed by cultivation for 48 hours, and then stained with May-Grunwald-Giemsa to thereby count the number of Toxoplasma organisms in the cells. […] From the data obtained on all of the five visual fields, an average value and a standard deviation are calculated to determine the percentage of cells containing Toxoplasma.
The Toxo-GIF activity, which is another activity useful for evaluating the activity to inhibit multiplication of Toxoplasma, is defined as a proportion of decrease of Toxoplasma (Tp)-containing cells (in percentage) attributed to the addition of a peptide sample, expressed by percentage, and calculated according to the following formula: Toxo-GIF Activity (%)= [formula] […]
(§6) The effect of the No. 5 peptide (Obio-2) is evaluated.

Assay [4] has as its system Methylcholanthrene induced tumor (MC tumor). Description: Effect of peptide injection on tumor multiplication in Methylcholanthrene induced tumor (MC tumor)-bearing mouse. The assay is classed as in vivo. The following applies: 28 days after inoculation with MC tumor cells; 30 μg/mouse intramuscularly every week; control 432±10.5. The procedure:
as §4, §5

The subject of assay [5] is Toxoplasma strain RH. Kind of assay: Activity to inhibit multiplication of Toxoplasma in human cerebral cells (Flow 3000 cell). The assay is classed as cell-based, Toxoplasma gondii. The following applies: Obio-2 0.05 mg/ml. As to the method:
as §1
(§7) The cells are suspended in MEM-M culture medium containing 10% of heat-inactivated calf serum at a concentration of 1×10^6 cells/mi. This cell suspension is portionwise poured, 1 ml each, into culture wells (multidish-tray, FB-16-24-TC, manufactured and sold by Limblo Chemical Co., U.S.A.), which are covered by a circular cover glass having a diameter of 15 mm, and cultured in a 5% CO2 -incubator overnight to thereby obtain a cell monolayer (a human myocardial cell monolayer and a human cerebral cell monolayer) on the cover glass.
(§8) The obtained cell monolayer is rinsed with MEM-M culture medium, and inoculated with 1×10^5 tachyzoites of Toxoplasma strain RH per 1×10^6 cells with respect to each of the human myocardial cells and the human brain cells. Free Toxoplasma organisms having not penetrated into the cells are removed by washing with HBSS one hour after the inoculation.
(§9) An MEM-M culture medium containing a peptide sample is applied to the cover glass in an amount of 1 ml per 1×10^6 cells, followed by cultivation for 48 hours, and then stained with May-Grunwald-Giemsa to thereby count the number of Toxoplasma organisms in the cells. The percentage of cells containing Toxoplasma organisms is determined in the same manner as described above for mouse macrophages.
as §3, §6

Assay [6] relates to Toxoplasma strain RH. Description: Activity to inhibit multiplication of Toxoplasma in human myocardial cells (Giardi Heart cell). The assay is classed as cell-based, Toxoplasma gondii. The following applies: Obio-2 0.05 mg/ml. The procedure: as §1, §7, §8, §9, §3, §6
The mark [7] stands for this setting: Obio-2 0.05 mg/ml, mouse macrophage.
Where [8] appears, read: synthetic peptide 0.7 mM, mouse peritoneal macrophages.

Ends that are not written are not given here.

For the substance AEEPVV [peptide No. 5], in the assay with Toxoplasma, the “Percentage of cells containing Toxoplasma (Tp): 0 Tp” value (“Percentage … 0 Tp” for short) was 69.6 ± 11.5%, the “Percentage of cells containing Toxoplasma (Tp): 1-5 Tp” value (“Percentage … 1-5 Tp” below) was determined as 24.0 ± 9.1%, the “Percentage of cells containing Toxoplasma (Tp): ≥6 Tp/cell” value (“Percentage … ≥6 Tp/cell” for short) worked out at 6.4 ± 2.7% and the Toxo-GIF is 63.1%. For the same substance, in assay [1], the “Bleeding colonies at the tumor tissue portions (histopathological findings)” value is given as “no apparent bleeding colonies”, the “Spleen mononuclear cell count in tumor-bearing mice relative to normal mice” value is recorded as 0.64 and the “Number of mononuclear cells per mouse” value is listed as 8.3 × 10^7. Also, the “Concentration at which Toxo-GIF activity becomes appreciable / sufficient activity is detected” value in the assay on Toxoplasma strain RH [2] came to 0.25 mg/mL. In addition, in the assay on Toxoplasma strain RH [2] (setting [7]), the “Percentage … 0 Tp” value came out at 88.4 ± 7.6%, the “Percentage … 1-5 Tp” value was found to be 7.0 ± 4.5%, the “Percentage … ≥6 Tp/cell” value is 4.6 ± 4.2% and the Toxo-GIF worked out at 50.4%. Moreover, in the assay on Toxoplasma strain RH [2] (setting [8]), the “Percentage … 0 Tp” value came to 64.4 ± 9.3%, the “Percentage … 1-5 Tp” value is recorded as 32.8 ± 8.8%, the “Percentage … ≥6 Tp/cell” value worked out at 2.8 ± 1.1% and the Toxo-GIF is recorded as 61.6%. Also, in the assay on Toxoplasma strain RH [3], the “Percentage … 0 Tp” value is 80.5 ± 6.4%, the “Percentage … 1-5 Tp” value was 12.8 ± 5.4%, the “Percentage … ≥6 Tp/cell” value came out at 6.7 ± 3.3% and the Toxo-GIF was 67.4%. In addition, in assay [4], the Average tumor area came out at 208±40.1 mm^2. Further, in the assay with Toxoplasma strain RH [5], the “Percentage … 0 Tp” value is 75.4 ± 7.4%, the “Percentage … 1-5 Tp” value is listed as 12.6 ± 6.8%, the “Percentage … ≥6 Tp/cell” value is on record as 2.1 ± 1.9% and the Toxo-GIF is given as 78.2%. For the same substance, in the assay on Toxoplasma strain RH [6], the “Percentage … 0 Tp” value is 80.7 ± 6.1%, the “Percentage … 1-5 Tp” value was determined as 10.6 ± 3.4%, the “Percentage … ≥6 Tp/cell” value is 8.7 ± 2.1% and the Toxo-GIF was found to be 57.7%.

For the substance GAEEPVV [peptide No. 6], in the assay on Toxoplasma, the “Percentage … 0 Tp” value was determined as 59.7 ± 15.8%, the “Percentage … 1-5 Tp” value was 29.5 ± 11.0%, the “Percentage … ≥6 Tp/cell” value is 10.8 ± 7.1% and the Toxo-GIF is listed as 51.1%. Also, in assay [1], the “Bleeding colonies at the tumor tissue portions (histopathological findings)” value is “no apparent bleeding colonies”, the “Spleen mononuclear cell count in tumor-bearing mice relative to normal mice” value was 0.72 and the “Number of mononuclear cells per mouse” value was 9.1 × 10^7. Also, in the assay on Toxoplasma strain RH [2] (setting [8]), the “Percentage … 0 Tp” value was found to be 55.2 ± 6.2%, the “Percentage … 1-5 Tp” value is recorded as 36.2 ± 8.6%, the “Percentage … ≥6 Tp/cell” value is 8.6 ± 4.4% and the Toxo-GIF is recorded as 51.7%. The substance further came in with an Average tumor area in assay [4] of 219±40.1 mm^2.
